Reference: ChEMBL document CHEMBL3885861, “Open TG-GATES”

Species on record: Rattus norvegicus
Experiment: Open TG-GATES - Regimen: Daily Repeat
Type: toxicity, organism-based, Sprague-Dawley
Set-up: regimen Daily Repeat, gender Male, age 6 weeks
Conditions: in vivo, po, route gavage; for APTT / Bas / Eos / Fbg / Hb / Ht / Lym / MCH / MCHC / MCV / Mono / Neu / PT / Plat / RBC / Ret / WBC: tissue Blood; for KIDNEY_L / KIDNEY_R / KIDNEY_TOTAL: tissue Kidney; for LIVER: tissue Liver; for A/G / ALP / ALT / AST / BUN / CRE / Ca / Cl / DBIL / GLC / IP / K / LDH / Na / PL / RALB / TBIL / TC / TG / TP / gamma-GTP: tissue Plasma
[1] = 150 mg/kg, 72 h, dose level Middle, time 3 day
[2] = 150 mg/kg, […], dose level Middle, time 7 day
[3] = 150 mg/kg, […], dose level Middle, time 14 day
[4] = 150 mg/kg, […], dose level Middle, time 28 day
[5] = 500 mg/kg, 72 h, dose level High, time 3 day
[6] = 500 mg/kg, […], dose level High, time 7 day
[7] = 500 mg/kg, […], dose level High, time 14 day
[8] = 500 mg/kg, […], dose level High, time 28 day

## CC(=O)Oc1cc(C(C)C)c(OCCN(C)C)cc1C [MOXISYLYTE]
[1]
  TERMINAL_BW: 223.4 g
  APTT: 20.6 s
  Bas: 0%
  Eos: 1%
  Fbg: 313 mg/dL
  Hb: 14.1 g/dL
  Ht: 40.5%
  Lym: 78%
  MCH: 21.3 pg
  MCHC: 34.8%
  MCV: 61.2 fL
  Mono: 2.4%
  Neu: 17.6%
  PT: 16.2 s
  Plat: 113.1 x10_4/uL
  RBC: 663.6 x10_4/ul
  Ret: 6.3%
  WBC: 91.7 x10_2/uL
  KIDNEY_L: 1 g
  KIDNEY_R: 1 g
  KIDNEY_TOTAL: 2 g
  LIVER: 9.7 g
  A/G: 1.3
  ALP: 1491.8 IU/L
  ALT: 42.6 IU/L
  AST: 75.6 IU/L
  BUN: 16.4 mg/dL
  CRE: 0.1 mg/dL
  Ca: 10.8 mg/dL
  Cl: 106.6 meq/L
  DBIL: 0.01 mg/dL
  GLC: 176.8 mg/dL
  IP: 7.4 mg/dL
  K: 4.2 meq/L
  LDH: 242.8 IU/L
  Na: 142.6 meq/L
  PL: 159.8 mg/dL
  RALB: 3.3 g/dL
  TBIL: 0.008 mg/dL
  TC: 74.4 mg/dL
  TG: 140.6 mg/dL
  TP: 5.8 g/dL
  gamma-GTP: 1 IU/L
[2]
  TERMINAL_BW: 265.4 g
  APTT: 22.3 s
  Bas: 0%
  Eos: 0.6%
  Fbg: 318.2 mg/dL
  Hb: 13.4 g/dL
  Ht: 38.8%
  Lym: 81.4%
  MCH: 21.1 pg
  MCHC: 34.6%
  MCV: 61.2 fL
  Mono: 2.2%
  Neu: 15.2%
  PT: 15.3 s
  Plat: 113.7 x10_4/uL
  RBC: 633.2 x10_4/ul
  Ret: 6.1%
  WBC: 110.8 x10_2/uL
  KIDNEY_L: 1.1 g
  KIDNEY_R: 1.2 g
  KIDNEY_TOTAL: 2.3 g
  LIVER: 12.3 g
  A/G: 1.3
  ALP: 1576.8 IU/L
  ALT: 43.4 IU/L
  AST: 77.8 IU/L
  BUN: 17.2 mg/dL
  CRE: 0.2 mg/dL
  Ca: 10.6 mg/dL
  Cl: 106 meq/L
  DBIL: 0 mg/dL
  GLC: 192.2 mg/dL
  IP: 7.2 mg/dL
  K: 4.3 meq/L
  LDH: 192.2 IU/L
  Na: 141.4 meq/L
  PL: 155.4 mg/dL
  RALB: 3.1 g/dL
  TBIL: 0.006 mg/dL
  TC: 75.6 mg/dL
  TG: 147.6 mg/dL
  TP: 5.5 g/dL
  gamma-GTP: 1.4 IU/L
[3]
  TERMINAL_BW: 312.1 g
  APTT: 21.8 s
  Bas: 0%
  Eos: 1.2%
  Fbg: 310.8 mg/dL
  Hb: 14.5 g/dL
  Ht: 40%
  Lym: 76.4%
  MCH: 20.9 pg
  MCHC: 36.3%
  MCV: 57.8 fL
  Mono: 2.6%
  Neu: 19%
  PT: 15.9 s
  Plat: 117.3 x10_4/uL
  RBC: 692.8 x10_4/ul
  Ret: 4.9%
  WBC: 125.2 x10_2/uL
  KIDNEY_L: 1.2 g
  KIDNEY_R: 1.3 g
  KIDNEY_TOTAL: 2.6 g
  LIVER: 13.7 g
  A/G: 1.2
  ALP: 1330.2 IU/L
  ALT: 44.6 IU/L
  AST: 79.2 IU/L
  BUN: 18.8 mg/dL
  CRE: 0.2 mg/dL
  Ca: 10.6 mg/dL
  Cl: 107.4 meq/L
  DBIL: 0 mg/dL
  GLC: 173.2 mg/dL
  IP: 6 mg/dL
  K: 4.2 meq/L
  LDH: 181.2 IU/L
  Na: 141 meq/L
  PL: 146.2 mg/dL
  RALB: 3.1 g/dL
  TBIL: 0 mg/dL
  TC: 76.2 mg/dL
  TG: 151.4 mg/dL
  TP: 5.7 g/dL
  gamma-GTP: 1 IU/L
[4]
  TERMINAL_BW: 361.5 g
  APTT: 22.5 s
  Bas: 0%
  Eos: 1%
  Fbg: 323.6 mg/dL
  Hb: 15.1 g/dL
  Ht: 42.5%
  Lym: 81.6%
  MCH: 19 pg
  MCHC: 35.4%
  MCV: 53.5 fL
  Mono: 2.4%
  Neu: 14.2%
  PT: 15.6 s
  Plat: 92.2 x10_4/uL
  RBC: 793.6 x10_4/ul
  Ret: 2.7%
  WBC: 166.9 x10_2/uL
  KIDNEY_L: 1.4 g
  KIDNEY_R: 1.4 g
  KIDNEY_TOTAL: 2.8 g
  LIVER: 14.2 g
  A/G: 1
  ALP: 1105.4 IU/L
  ALT: 41 IU/L
  AST: 70.4 IU/L
  BUN: 17.4 mg/dL
  CRE: 0.2 mg/dL
  Ca: 10.4 mg/dL
  Cl: 107 meq/L
  DBIL: 0.002 mg/dL
  GLC: 188.2 mg/dL
  IP: 6.1 mg/dL
  K: 4.1 meq/L
  LDH: 137 IU/L
  Na: 141.8 meq/L
  PL: 143 mg/dL
  RALB: 3.1 g/dL
  TBIL: 0.006 mg/dL
  TC: 71.4 mg/dL
  TG: 150.4 mg/dL
  TP: 6 g/dL
  gamma-GTP: 2.2 IU/L
[5]
  TERMINAL_BW: 224 g
  APTT: 20.8 s
  Bas: 0%
  Eos: 1%
  Fbg: 325 mg/dL
  Hb: 14.2 g/dL
  Ht: 40.8%
  Lym: 76%
  MCH: 21.2 pg
  MCHC: 34.8%
  MCV: 61 fL
  Mono: 2.8%
  Neu: 20%
  PT: 15.7 s
  Plat: 118.1 x10_4/uL
  RBC: 669.4 x10_4/ul
  Ret: 6.3%
  WBC: 95.6 x10_2/uL
  KIDNEY_L: 1 g
  KIDNEY_R: 1 g
  KIDNEY_TOTAL: 2 g
  LIVER: 10.7 g
  A/G: 1.3
  ALP: 1492.8 IU/L
  ALT: 46.6 IU/L
  AST: 77.6 IU/L
  BUN: 17.6 mg/dL
  CRE: 0.2 mg/dL
  Ca: 10.9 mg/dL
  Cl: 106.4 meq/L
  DBIL: 0.004 mg/dL
  GLC: 176.4 mg/dL
  IP: 7.6 mg/dL
  K: 4.4 meq/L
  LDH: 244.2 IU/L
  Na: 142.6 meq/L
  PL: 177.6 mg/dL
  RALB: 3.2 g/dL
  TBIL: 0.012 mg/dL
  TC: 92.2 mg/dL
  TG: 118.6 mg/dL
  TP: 5.8 g/dL
  gamma-GTP: 1.2 IU/L
[6]
  TERMINAL_BW: 243.1 g
  APTT: 21.5 s
  Bas: 0%
  Eos: 0.8%
  Fbg: 317.8 mg/dL
  Hb: 13.6 g/dL
  Ht: 38.5%
  Lym: 76.6%
  MCH: 21 pg
  MCHC: 35.3%
  MCV: 59.4 fL
  Mono: 2.4%
  Neu: 19.6%
  PT: 15.4 s
  Plat: 118.7 x10_4/uL
  RBC: 649.6 x10_4/ul
  Ret: 4.8%
  WBC: 113.3 x10_2/uL
  KIDNEY_L: 1.1 g
  KIDNEY_R: 1.1 g
  KIDNEY_TOTAL: 2.1 g
  LIVER: 11.2 g
  A/G: 1.3
  ALP: 1348.8 IU/L
  ALT: 46.2 IU/L
  AST: 74.8 IU/L
  BUN: 19 mg/dL
  CRE: 0.2 mg/dL
  Ca: 10.6 mg/dL
  Cl: 105.8 meq/L
  DBIL: 0 mg/dL
  GLC: 168.8 mg/dL
  IP: 6.7 mg/dL
  K: 4.1 meq/L
  LDH: 205.6 IU/L
  Na: 141.6 meq/L
  PL: 169.8 mg/dL
  RALB: 3.1 g/dL
  TBIL: 0.012 mg/dL
  TC: 86.4 mg/dL
  TG: 120.8 mg/dL
  TP: 5.5 g/dL
  gamma-GTP: 1.4 IU/L
[7]
  TERMINAL_BW: 311.5 g
  APTT: 22.2 s
  Bas: 0%
  Eos: 1%
  Fbg: 314.8 mg/dL
  Hb: 14.6 g/dL
  Ht: 39.8%
  Lym: 74.4%
  MCH: 21.2 pg
  MCHC: 36.7%
  MCV: 57.9 fL
  Mono: 2.2%
  Neu: 21.6%
  PT: 15.8 s
  Plat: 122.7 x10_4/uL
  RBC: 688.2 x10_4/ul
  Ret: 5%
  WBC: 116.2 x10_2/uL
  KIDNEY_L: 1.2 g
  KIDNEY_R: 1.3 g
  KIDNEY_TOTAL: 2.5 g
  LIVER: 14.8 g
  A/G: 1.2
  ALP: 1394 IU/L
  ALT: 43.6 IU/L
  AST: 69.2 IU/L
  BUN: 17.4 mg/dL
  CRE: 0.2 mg/dL
  Ca: 10.6 mg/dL
  Cl: 104.6 meq/L
  DBIL: 0 mg/dL
  GLC: 179.4 mg/dL
  IP: 6.7 mg/dL
  K: 3.7 meq/L
  LDH: 123.6 IU/L
  Na: 141.4 meq/L
  PL: 171 mg/dL
  RALB: 3.2 g/dL
  TBIL: 0.006 mg/dL
  TC: 83.2 mg/dL
  TG: 190 mg/dL
  TP: 5.8 g/dL
  gamma-GTP: 1 IU/L
[8]
  TERMINAL_BW: 377.7 g
  APTT: 21.9 s
  Bas: 0%
  Eos: 1.2%
  Fbg: 311 mg/dL
  Hb: 15 g/dL
  Ht: 42.8%
  Lym: 79.2%
  MCH: 18.7 pg
  MCHC: 35.1%
  MCV: 53.3 fL
  Mono: 1.6%
  Neu: 17.4%
  PT: 15.3 s
  Plat: 105.2 x10_4/uL
  RBC: 802.6 x10_4/ul
  Ret: 2.9%
  WBC: 118.3 x10_2/uL
  KIDNEY_L: 1.4 g
  KIDNEY_R: 1.4 g
  KIDNEY_TOTAL: 2.8 g
  LIVER: 15.5 g
  A/G: 1.1
  ALP: 1129.4 IU/L
  ALT: 47.6 IU/L
  AST: 69.8 IU/L
  BUN: 17.6 mg/dL
  CRE: 0.2 mg/dL
  Ca: 10.7 mg/dL
  Cl: 106 meq/L
  DBIL: 0.004 mg/dL
  GLC: 189 mg/dL
  IP: 6.4 mg/dL
  K: 4.1 meq/L
  LDH: 151.2 IU/L
  Na: 142.2 meq/L
  PL: 173.6 mg/dL
  RALB: 3.2 g/dL
  TBIL: 0.008 mg/dL
  TC: 87 mg/dL
  TG: 152.2 mg/dL
  TP: 6.2 g/dL
  gamma-GTP: 2 IU/L
